The values that follow come from patent US20240238310A1, “MODULATION OF SEX STEROID HORMONE PRODUCTION AND ACTIVITY FOR TREATING AND PREVENTING HERNIAS” (Northwestern University, priority 2020, published 2024).

The target of this test is T1, ERα (Mus musculus, UniProt P19785).
T1 construct: ERα in LAMT is almost exclusively expressed in fibroblasts; endogenous in cells; host or cells: primary LAMT fibrosis-associated fibroblasts (passage 0) from 4-week-old Arom^hum (FVB/N background) male mice
T1 sequence (P19785 1-599): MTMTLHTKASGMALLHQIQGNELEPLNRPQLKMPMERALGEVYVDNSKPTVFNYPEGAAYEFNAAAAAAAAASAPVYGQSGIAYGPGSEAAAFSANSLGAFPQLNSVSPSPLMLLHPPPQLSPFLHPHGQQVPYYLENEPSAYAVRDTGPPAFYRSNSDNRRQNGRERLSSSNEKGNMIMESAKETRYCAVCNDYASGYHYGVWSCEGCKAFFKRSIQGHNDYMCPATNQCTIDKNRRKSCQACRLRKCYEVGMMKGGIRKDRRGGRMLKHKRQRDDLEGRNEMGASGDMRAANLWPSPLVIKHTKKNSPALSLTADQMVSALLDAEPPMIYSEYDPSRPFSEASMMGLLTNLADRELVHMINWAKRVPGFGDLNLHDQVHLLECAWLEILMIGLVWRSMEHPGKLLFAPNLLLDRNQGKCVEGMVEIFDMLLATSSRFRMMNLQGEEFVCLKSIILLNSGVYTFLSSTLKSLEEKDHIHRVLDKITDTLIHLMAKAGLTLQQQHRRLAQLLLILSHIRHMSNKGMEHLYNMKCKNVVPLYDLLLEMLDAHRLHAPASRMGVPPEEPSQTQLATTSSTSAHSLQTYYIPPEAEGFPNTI
Put plainly: ERα ChIP-seq, histone ChIP-seq and RNA-seq in LAMT FAFs treated with E2 or fulvestrant (planned). The test is classed as cell-based. As to conditions: expected result (Aim 1); fulvestrant 10^−7 M, 24 h. From the text: Early herniation in Arom^hum mice usually become visible around 4 weeks of age (FIG. 5). Thus, we will isolate LAMT transformed FAFs at 4 weeks of age. We routinely culture primary fibroblast cells from LAMT of both WT and Arom^hum mice (FIGS. 6-9). The quantity of FAFs (>10^7 cells/Arom^hum mouse) is sufficient for performing the proposed experiments. Previously, we successfully used two antibodies for ERα ChIP-seq or other genome-wide ChIP approaches^84, 85. We will perform optimization studies (ChIP-western and conventional ChIP) with both antibodies in primary muscle fibroblasts and use the most suitable antibody for ChIP-seq^84. […] Library quality will be assessed using the Agilent 2100 Bioanalyzer. Sequencing will be performed at the Next-Generation Sequencing Core at Northwestern to obtain 30 million single-end 75-bp reads per sample. […]
Experiment 1b2: We will perform RNA-seq at 40 million reads per sample on the 12 LAMT FAF samples treated for 24 h with vehicle, E2 (10^−8M), or fulvestrant (10^-7 M) (n=4 mice/group). […] The RNA-seq data will be evaluated using pathway analysis and gene enrichment strategies with respect to the differentially expressed (DE) transcripts/genes induced by E2 and reversed by fulvestrant.
Bioinformatics analysis for ChIP-seq, RNA-seq, and their integration. […] The differential binding (DB) sites will be detected using csaw^89. […]

As for `C[C@]12CC[C@@H]3c4ccc(O)cc4C[C@@H](CCCCCCCCC[S+]([O-])CCCC(F)(F)C(F)(F)F)[C@H]3[C@@H]1CC[C@@H]2O` (stereo partly shown) [fulvestrant], the “E2-induced ERα binding, histone modification and gene expression profiles in LAMT FAFs” value is “will block or partially reverse E2-induced ERα binding and histone modification, and alter gene expression profiles”.
